Test results published in ChEMBL document CHEMBL1136086, “6-Alkyl, alkoxy, or alkylthio-substituted 3-(4-methanesulfonylphenyl)-4-phenylpyran-2-ones: a novel class of diarylheterocyclic selective cyclooxygenase-2 inhibitors” (Bioorg Med Chem Lett, 2003).

Legend:
[1] = molecular target: T1, Prostaglandin G/H synthase 1 (Ovis aries, UniProt P05979)
T1 sequence (P05979 whole entry): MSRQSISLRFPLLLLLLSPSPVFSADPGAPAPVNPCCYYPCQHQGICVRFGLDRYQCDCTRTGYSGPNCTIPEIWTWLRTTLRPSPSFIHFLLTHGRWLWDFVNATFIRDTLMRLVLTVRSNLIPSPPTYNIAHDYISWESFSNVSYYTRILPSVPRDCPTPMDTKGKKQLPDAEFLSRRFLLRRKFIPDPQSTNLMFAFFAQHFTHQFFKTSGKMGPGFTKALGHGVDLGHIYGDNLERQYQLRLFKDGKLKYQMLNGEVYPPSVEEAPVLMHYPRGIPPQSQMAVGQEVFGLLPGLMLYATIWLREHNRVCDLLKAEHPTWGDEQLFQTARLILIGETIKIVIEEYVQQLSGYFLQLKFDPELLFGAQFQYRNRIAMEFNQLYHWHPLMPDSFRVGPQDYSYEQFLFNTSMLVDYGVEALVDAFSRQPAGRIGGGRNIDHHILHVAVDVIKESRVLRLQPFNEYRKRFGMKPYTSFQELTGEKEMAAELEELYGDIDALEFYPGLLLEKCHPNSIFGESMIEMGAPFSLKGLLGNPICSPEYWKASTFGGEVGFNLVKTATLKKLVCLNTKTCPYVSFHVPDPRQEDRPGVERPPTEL
Description: In vitro inhibition against ovine Prostaglandin G/H synthase 1

[2] = molecular target: T2, Prostaglandin G/H synthase 1 (Ovis aries) (UniProt P05979); test: In vitro selectivity ratio of Prostaglandin G/H synthase 1 to Prostaglandin G/H synthase 2
T2 sequence (whole entry): T1 sequence (P05979 whole entry)

Row | Structure (SMILES) | IC50 [1] [µM] | Ratio [2]
1 | CCSc1cc(-c2ccccc2)c(-c2ccc(S(C)(=O)=O)cc2)c(=O)o1 | 386 | 
2 | Cc1cc(-c2ccccc2)c(-c2ccc(S(C)(=O)=O)cc2)c(=O)o1 | 615 | 
3 | CC(C)c1cc(-c2ccccc2)c(-c2ccc(S(C)(=O)=O)cc2)c(=O)o1 | 341 | 
4 | CC(C)Sc1cc(-c2ccccc2)c(-c2ccc(S(C)(=O)=O)cc2)c(=O)o1 | > 100 | 
5 | CSc1cc(-c2ccccc2)c(-c2ccc(S(C)(=O)=O)cc2)c(=O)o1 | > 100 | 35.7
6 | CCOc1cc(-c2ccccc2)c(-c2ccc(S(C)(=O)=O)cc2)c(=O)o1 | 281 | 

The next molecules have a lower IC50 [1] than those just listed; values first:

Row | IC50 [1] [µM] | Ratio [2] | Structure (SMILES)
7 | 14.7 | < 0.52 | COc1cc(-c2ccccc2)c(-c2ccc(S(C)(=O)=O)cc2)c(=O)o1
8 | 4 | 2 | CC(C)Oc1cc(-c2ccccc2)c(-c2ccc(S(C)(=O)=O)cc2)c(=O)o1
9 | 8 |  | CCc1cc(-c2ccccc2)c(-c2ccc(S(C)(=O)=O)cc2)c(=O)o1
